Experimental data as given in ChEMBL document CHEMBL1158735, “Manoyl oxide diterpenoids from Grindelia scorzonerifolia” (2005).
Converted amounts (≈) assume the structure as drawn.

How the values were obtained:
Assay type in all cases: functional
Spodoptera frugiperda [1] = assay: Effect on feeding preference of third instar larvae of Spodoptera frugiperda assessed as food consumption at 100 ppm administered through larval diet by feeding election test relative to control
Staphylococcus aureus [2] = assay: Antibacterial activity against Staphylococcus aureus ATCC 6538P after 24 hrs by broth microdilution method
Staphylococcus aureus [3] = assay: Antibacterial activity against methicillin-resistant Staphylococcus aureus F7 after 24 hrs by broth microdilution method
Spodoptera frugiperda [4] = assay: Insecticidal activity against third instar larvae of Spodoptera frugiperda assessed as malformation and mortality at 100 ppm administered through larval diet

In the case of `C=C[C@@]1(C)CC[C@@H]2[C@@]3(C)CCC[C@@](C)(CO[C@@H]4OC[C@H](O)[C@H](O)[C@H]4O)[C@@H]3CC[C@@]2(C)O1`, the Activity (Spodoptera frugiperda [1]) is reported as 1, the MIC (Staphylococcus aureus [2]) is reported as 2000 µg/mL (≈ 4.56 mM) and the MIC (Staphylococcus aureus [3]) is reported as 1250 µg/mL (≈ 2.85 mM). The Activity (Spodoptera frugiperda [4]) was 80%.
